Test results taken from patent US11229623B2 (GlaxoSmithKline Intellectual Property (No.2) Limited, priority 2016, dated 2022).
Counter-ions that a name gives are not always drawn.

Biological target: T1, human TRPV4 (Homo sapiens, UniProt Q9HBA0)
T1 construct: expressed in transfected cells; host or cells: BHK/AC9 cells transduced with BacMam virus
Assay: FLIPR assay for hTRPV4 expressed in BHK cells: inhibition of Agonist Compound-induced calcium signal
Type: cell-based
Conditions: hTRPV4 in BHK/AC9 cells, FLIPR calcium signal, agonist at EC80; reported as range class; read-out: IC50
Method: FLIPR Assay for hTRPV4 Expressed in BHK Cells:
TRPV4 channel activation results in an influx of divalent and monovalent cations including calcium. The resulting changes in intracellular calcium were monitored using a calcium specific fluorescent dye Fluo-4 (MDS Analytical Technologies). BHK/AC9 cells transduced with BacMam virus expressing the human TRPV4 gene at a MOI of 78 were plated in a 384 well poly-D lysine coated plate (15,000 cells/well in 50 μL culture medium containing DMEM/F12 with 15 mM HEPES, 10% FBS, 1% Penicillin-Streptomycin and 1% L-glutamine). Cells were incubated for 24 hours at 37° C. and 5% CO2. Culture medium was then aspirated using a Tecan plate-washer and replaced with 20 μL/well of dye loading buffer: HBSS, 500 μM Brilliant Black (MDS Analytical Technologies), and 2 μM Fluo-4 AM. Dye loaded plates were then incubated in the dark at room temperature for 1-1.5 hours.

T1 sequence (Q9HBA0 whole entry): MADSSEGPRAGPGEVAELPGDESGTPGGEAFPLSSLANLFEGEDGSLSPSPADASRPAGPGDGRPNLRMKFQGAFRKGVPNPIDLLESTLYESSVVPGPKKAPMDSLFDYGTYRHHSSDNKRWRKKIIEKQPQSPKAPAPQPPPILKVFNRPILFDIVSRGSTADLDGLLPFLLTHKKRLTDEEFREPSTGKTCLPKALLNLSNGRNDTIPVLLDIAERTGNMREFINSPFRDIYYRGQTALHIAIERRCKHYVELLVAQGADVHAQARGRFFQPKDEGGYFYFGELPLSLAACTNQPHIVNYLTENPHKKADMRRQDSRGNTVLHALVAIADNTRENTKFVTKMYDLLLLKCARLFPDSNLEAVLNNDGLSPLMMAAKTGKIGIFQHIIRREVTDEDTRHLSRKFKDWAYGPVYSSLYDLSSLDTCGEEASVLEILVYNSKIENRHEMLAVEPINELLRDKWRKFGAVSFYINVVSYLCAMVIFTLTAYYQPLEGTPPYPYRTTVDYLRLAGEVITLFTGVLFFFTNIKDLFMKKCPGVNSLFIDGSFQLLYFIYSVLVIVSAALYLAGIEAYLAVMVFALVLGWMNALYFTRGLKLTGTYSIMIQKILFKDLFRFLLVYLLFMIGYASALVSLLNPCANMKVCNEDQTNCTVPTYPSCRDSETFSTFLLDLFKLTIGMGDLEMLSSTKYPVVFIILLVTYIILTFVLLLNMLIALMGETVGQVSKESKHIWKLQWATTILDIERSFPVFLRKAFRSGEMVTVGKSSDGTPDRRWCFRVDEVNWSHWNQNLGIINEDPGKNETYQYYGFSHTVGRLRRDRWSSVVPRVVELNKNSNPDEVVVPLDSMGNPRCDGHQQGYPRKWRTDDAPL

IC50	SMILES
10 to 100 nM	N#Cc1ccc(O[C@H]2CN(S(=O)(=O)c3ccc(C(F)(F)F)nc3)C[C@@]2(O)CN)cc1F [Example 245, 4-(((3S,4S)-4-(aminomethyl)-4-hydroxy-1-((6-(trifluoromethyl)pyridin-3-yl)sulfonyl)pyrrolidin-3-yl)oxy)-2-fluorobenzonitrile, Hydrochloride]
10 to 100 nM	C#Cc1ccccc1S(=O)(=O)N1C[C@H](Oc2ccc(C#N)c(F)c2)[C@](O)(CO)C1 [Example 93, 4-(((3S,4R)-1-((2-ethynylphenyl)sulfonyl)-4-hydroxy-4-(hydroxymethyl)pyrrolidin-3-yl)oxy)-2-fluorobenzonitrile]
10 to 100 nM	CC#Cc1cc(C#N)ccc1S(=O)(=O)N1C[C@H](Oc2ccc(C#N)c(F)c2)[C@](O)(CO)C1 [Example 224, 4-(((3S,4R)-1-((4-cyano-2-(prop-1-yn-1-yl)phenyl)sulfonyl)-4-hydroxy-4-(hydroxymethyl)pyrrolidin-3-yl)oxy)-2-fluorobenzonitrile]
10 to 100 nM	N#Cc1ccc(O[C@H]2CN(S(=O)(=O)c3ccc(C(F)(F)F)s3)C[C@@]2(O)CO)cc1F [Example 112, 2-fluoro-4-(((3S,4R)-4-hydroxy-4-(hydroxymethyl)-1-((5-(trifluoromethyl)thiophen-2-yl)sulfonyl)pyrrolidin-3-yl)oxy)benzonitrile]
0.1 to 10 nM	N#Cc1ccc(O[C@H]2CN(S(=O)(=O)c3ccc(C(F)(F)F)cc3C#N)C[C@@]2(O)CO)c(OCc2ccccc2)c1 [Example 171, 2-(((3R,4S)-4-(2-(benzyloxy)-4-cyanophenoxy)-3-hydroxy-3-(hydroxymethyl)pyrrolidin-1-yl)sulfonyl)-5-(trifluoromethyl)benzonitrile]
10 to 100 nM	N#Cc1ccc(O[C@H]2CN(S(=O)(=O)c3ccc(F)cn3)C[C@@]2(O)CN)cc1F [Example 242, 4-(((3S,4S)-4-(aminomethyl)-1-((5-fluoropyridin-2-yl)sulfonyl)-4-hydroxpyrrolidin-3-yl)oxy)-2-fluorobenzonitrile, 2,2,2-trifluoroacetate]
0.1 to 10 nM	N#Cc1ccc(O[C@H]2CN(S(=O)(=O)c3ccc(C(F)(F)F)cc3C#N)C[C@@]2(O)CO)cc1F [Example 1, 4-(((3S,4R)-1-((2-cyano-4-(trifluoromethyl)phenyl)sulfonyl)-4-hydroxy-4-(hydroxymethyl)pyrrolidin-3-yl)oxy)-2-fluorobenzonitrile]
0.1 to 10 nM	CC(C)NC[C@]1(O)CN(S(=O)(=O)c2ccc(C(F)(F)F)cc2C#N)C[C@@H]1Oc1ccc(C#N)c(F)c1 [Example 239, 4-(((3S,4S)-1-((2-cyano-4-(trifluoromethyl)phenyl)sulfonyl)-4-hydroxy-4-((isopropylamino)methyl)pyrrolidin-3-yl)oxy)-2-fluorobenzonitrile, 2,2,2-trifluoroacetate]
10 to 100 nM	N#Cc1ccc(S(=O)(=O)N2C[C@H](Oc3ccc(C#N)c(F)c3)[C@](O)(CN)C2)cn1 [Example 243, 5-(((3S,4S)-3-(aminomethyl)-4-(4-cyano-3-fluorophenoxy)-3-hydroxpyrrolidin-1-yl)sulfonyl) picolinonitrile, 2,2,2-trifluoroacetate]
10 to 100 nM	N#Cc1ccc(O[C@H]2CN(S(=O)(=O)c3ccc(C(F)(F)F)cc3)C[C@@]2(O)CO)cc1F [Example 70, 2-fluoro-4-(((3S,4R)-4-hydroxy-4-(hydroxymethyl)-1-((4-(trifluoromethyl)phenyl)sulfonyl)pyrrolidin-3-yl)oxy)benzonitrile]
10 to 100 nM	CC(C)(C)C#Cc1ccc(S(=O)(=O)N2C[C@H](Oc3ccc(C#N)c(F)c3)[C@](O)(CO)C2)nc1 [Example 229, 4-(((3S,4R)-1-((5-(3,3-dimethylbut-1-yn-1-yl)pyridin-2-yl)sulfonyl)-4-hydroxy-4-(hydroxymethyl)pyrrolidin-3-yl)oxy)-2-fluorobenzonitrile]
0.1 to 10 nM	N#Cc1ccc(O[C@H]2CN(S(=O)(=O)c3ccc(I)cc3Cl)C[C@@]2(O)CO)cc1F [Example 115, 4-(((3S,4R)-1-((2-chloro-4-iodophenyl)sulfonyl)-4-hydroxy-4-(hydroxymethyl)pyrrolidin-3-yl)oxy)-2-fluorobenzonitrile]
10 to 100 nM	Cc1nc(C#N)ccc1S(=O)(=O)N1C[C@H](Oc2ccc(C#N)c(F)c2)[C@](O)(CO)C1 [Example 131, 5-(((3R,4S)-4-(4-cyano-3-fluorophenoxy)-3-hydroxy-3-(hydroxymethyl)pyrrolidin-1-yl)sulfonyl)-6-methylpicolinonitrile]
0.1 to 10 nM	N#Cc1cc(C(F)(F)F)ccc1S(=O)(=O)N1C[C@H](Oc2ccc(OC(F)(F)F)c(F)c2)[C@](O)(CO)C1 [Example 40, 2-(((3R,4S)-4-(3-fluoro-4-(trifluoromethoxy)phenoxy)-3-hydroxy-3-(hydroxymethyl)pyrrolidin-1-yl)sulfonyl)-5-(trifluoromethyl)benzonitrile]

The next lines start with the compound.

SMILES	IC50
Cc1ccc(S(=O)(=O)N2C[C@H](Oc3ccc(C#N)nc3)[C@](O)(CO)C2)c(Cl)c1 [Example 75, 5-(((3S,4R)-1-((2-chloro-4-methylphenyl)sulfonyl)-4-hydroxy-4-(hydroxymethyl)pyrrolidin-3-yl)oxy)picolinonitrile]	10 to 100 nM
C[C@@H](O)[C@]1(O)CN(S(=O)(=O)c2ccc(F)cn2)C[C@@H]1Oc1ccc(C#N)c(F)c1 [Example 207, 2-fluoro-4-(((3S,4R)-1-((5-fluoropyridin-2-yl)sulfonyl)-4-hydroxy-4-((R)-1-hydroxyethyl)pyrrolidin-3-yl)oxy)benzonitrile]	10 to 100 nM
N#Cc1ccc(S(=O)(=O)N2C[C@H](Oc3ccc(C#N)c(F)c3)[C@](O)(CO)C2)c(C(F)(F)F)c1 [Example 68, 4-(((3S,4R)-1-((4-cyano-2-(trifluoromethyl)phenyl)sulfonyl)-4-hydroxy-4-(hydroxymethyl)pyrrolidin-3-yl)oxy)-2-fluorobenzonitrile]	10 to 100 nM
N#Cc1ccc(O[C@H]2CN(S(=O)(=O)c3cccnc3C#N)C[C@]2(O)CO)cc1F [Example 140, 3-(((3S,4S)-4-(4-cyano-3-fluorophenoxy)-3-hydroxy-3-(hydroxymethyl)pyrrolidin-1-yl)sulfonyl)picolinonitrile]	10 to 100 nM
N#Cc1ccc(O[C@H]2CN(S(=O)(=O)c3ccc(C(F)(F)F)cc3C#N)C[C@@]2(O)CO)cc1C(F)(F)F [Example 11, 4-(((3S,4R)-1-((2-cyano-4-(trifluoromethyl)phenyl)sulfonyl)-4-hydroxy-4-(hydroxymethyl)pyrrolidin-3-yl)oxy)-2-(trifluoromethyl)benzonitrile]	10 to 100 nM
CC(C)COc1cc(C#N)c(F)cc1O[C@H]1CN(S(=O)(=O)c2ccc(C(F)(F)F)cc2)C[C@@]1(O)CO [Example 182, 2-fluoro-4-(((3S,4R)-4-hydroxy-4-(hydroxymethyl)-1-((4-(trifluoromethyl)phenyl)sulfonyl)pyrrolidin-3-yl)oxy)-5-isobutoxybenzonitrile]	10 to 100 nM
CCCCOc1cc(C#N)c(F)cc1O[C@H]1CN(S(=O)(=O)c2ccc(C(F)(F)F)cc2C#N)C[C@@]1(O)CO [Example 164, 5-butoxy-4-(((3S,4R)-1-((2-cyano-4-(trifluoromethyl)phenyl)sulfonyl)-4-hydroxy-4-(hydroxymethyl)pyrrolidin-3-yl)oxy)-2-fluorobenzonitrile]	0.1 to 10 nM
N#Cc1cc(C(F)(F)F)ccc1S(=O)(=O)N1C[C@H](Oc2cc(F)c(F)cc2F)[C@](O)(CO)C1 [Example 27, 2-(((3R,4S)-3-hydroxy-3-(hydroxymethyl)-4-(2,4,5-trifluorophenoxy)pyrrolidin-1-yl)sulfonyl)-5-(trifluoromethyl)benzonitrile]	0.1 to 10 nM
N#Cc1ccc(S(=O)(=O)N2C[C@H](Oc3ccc(Cl)cc3)[C@](O)(CO)C2)cn1 [Example 109, 5-(((3R,4S)-4-(4-chlorophenoxy)-3-hydroxy-3-(hydroxymethyl)pyrrolidin-1-yl)sulfonyl)picolinonitrile]	10 to 100 nM
N#Cc1ccc(O[C@H]2CN(S(=O)(=O)c3cnc(C(F)(F)F)nc3)C[C@@]2(O)CO)cc1F [Example 128, 2-fluoro-4-(((3S,4R)-4-hydroxy-4-(hydroxymethyl)-1-((2-(trifluoromethyl)pyrimidin-5-yl)sulfonyl)pyrrolidin-3-yl)oxy)benzonitrile]	100 to 1000 nM
N#Cc1ccc(O[C@H]2CN(S(=O)(=O)c3ccc(Cl)cn3)C[C@@]2(O)CN)cc1F [Example 233, 4-(((3S,4S)-4-(aminomethyl)-1-((5-chloropyridin-2-yl)sulfonyl)-4-hydroxypyrrolidin-3-yl)oxy)-2-fluorobenzonitrile, Hydrochloride]	10 to 100 nM
C[C@H](O)[C@]1(O)CN(S(=O)(=O)c2ccc(F)cc2C#N)C[C@@H]1Oc1ccc(C#N)c(F)c1 [Example 201, 4-(((3S,4R)-1-((2-cyano-4-fluorophenyl)sulfonyl)-4-hydroxy-4-((S)-1-hydroxyethyl)pyrrolidin-3-yl)oxy)-2-fluorobenzonitrile]	0.1 to 10 nM
N#Cc1ccc(O[C@H]2CN(S(=O)(=O)c3ccc(C#N)nc3)C[C@@]2(O)CO)c(OCC(F)(F)F)c1 [Example 184, 5-(((3R,4S)-4-(4-cyano-2-(2,2,2-trifluoroethoxy)phenoxy)-3-hydroxy-3-(hydroxymethyl)pyrrolidin-1-yl)sulfonyl) picolinonitrile]	10 to 100 nM
C[C@@H](O)[C@]1(O)CN(S(=O)(=O)c2ccc(OC(F)(F)F)cn2)C[C@@H]1Oc1ccc(C#N)c(F)c1 [Example 210, 2-fluoro-4-(((3S,4R)-4-hydroxy-4-((R)-1-hydroxyethyl)-1-((5-(trifluoromethoxy)pyridin-2-yl)sulfonyl)pyrrolidin-3-yl)oxy)benzonitrile]	10 to 100 nM
